# According to patent US20230119013A1, “N-CYANOPYRROLIDINES WITH ACTIVITY AS USP30 INHIBITORS” (MISSION THERAPEUTICS LIMITED, priority 2020, published 2023):
# Experiments:
# [1] = biological target: Cathepsin L (Homo sapiens, UniProt P07711); assay: Cathepsin IC50, Cathepsin L; format: biochemical
# [2] = system: UUO injured kidneys; assay: UUO model of tubulointerstitial fibrosis; format: in vivo, C57BL/6 mice; settings: 10 days
# Description: (a) Bleomycin-induced lung fibrosis model, which is a leading preclinical in vivo model of Idiopathic Pulmonary Fibrosis. [Kobayashi et al, 2016, J Immunol, 197(2):504-516] (b) Diet-induced model of NAFLD and glucose homeostasis. [Nishida et al, 2013, Lab Invest; February; 93(2):230-41] (c) MPTP Model of Parkinson's Disease, which is a commonly used paradigm for looking at neurodegeneration in the dopaminergic system of the brain which is triggered by chemically-induced mitochondrial dysfunction. [Karuppagouner et al, 2014, Sci Rep. 2014 May 2; 4:4874] (d) Ndufs4KO Leigh syndrome model. [Kruse et al, 2008, Cell Metab. April; 7(4):312-20] (e) Aged rodent model: effects on hippocampal, cognitive and motor function. [Kobilo et al, 2014, Learn Mem. January 17; 21(2):119-26; Creed et al, 2019, Neuroscience. June 15; 409:169-179; Van Skike et al, 2020, Aging Cell. 19; e13057]. Example 1 was assessed in this model. (f) UUO causes renal injury characterised by tubular cell injury, interstitial inflammation and fibrosis. It serves as a model of irreversible post-renal acute kidney injury (AKI). […]
# Example 1 was assessed in the UUO model to determine the ability of the compound to attenuate progressive tubulointerstitial fibrosis and chronic kidney disease (CKD). […]
# [3] = biological target: T1, USP30 (Homo sapiens, UniProt Q70CQ3); assay: USP30 endogenous cellular target engagement western blot assay (Cell TE WB); format: cell-based; settings: Hela cells stably overexpressing YFP-Parkin, 1 hour
# T1 construct: USP30 endogenous cellular target engagement western blot (WB) assay; endogenous in cells; host or cells: HeLa cells stably overexpressing YFP-Parkin
# Method: Hela cells stably overexpressing YFP-Parkin were seeded into 6 well dishes. Once adhered, cells were treated with appropriate concentrations of test compounds or vehicle control for 1 hour at 37° C., 5% CO2. Whole cell lysates were prepared by scraping the cells into cold PBS, centrifuging and lysing in lysis buffer (50 mM Tris-base, pH 7.5, 50 mM NaCl, 1% NP-40/Igepal CA-630, 2 mM MgCl2, 10% Glycerol, 5 mM beta-mercaptoethanol, cOmplete mini tablets EDTA free (Roche), PhosStop tablets (Roche)) for 10 mins. The equivalent of 20 μg of protein from the cleared cell lysate was incubated with a final conc of 2.5 μM HA-Ahx-Ahx-Ub-VME probe at room temperature. The reaction was stopped by addition of 5×SDS sample loading buffer and proteins separated by SDS PAGE and western blotting. USP30 was detected using an anti-USP30 Sheep S746D antibody (MRC PPU Reagents and Services) and a rabbit anti sheep secondary IgG (H+L) horseradish peroxidase conjugated (Thermo #31480) and visualised using ECL reagent (GE #RPN2109) on a GE LAS4000 imager. Target engagement was measured by quantitation of the bands corresponding to USP30 and USP30 bound to the Ub-VME probe and expression of this proportion compared to vehicle treated control.
# MDR1-MDCK (Madin-Darby Canine Kidney cell monolayer) (in vitro) flux assay. Cell TE WB: USP30 endogenous cellular target engagement western blot (WB) assay. […]
# Cathepsin L, sequence (P07711 114-333, species assumed): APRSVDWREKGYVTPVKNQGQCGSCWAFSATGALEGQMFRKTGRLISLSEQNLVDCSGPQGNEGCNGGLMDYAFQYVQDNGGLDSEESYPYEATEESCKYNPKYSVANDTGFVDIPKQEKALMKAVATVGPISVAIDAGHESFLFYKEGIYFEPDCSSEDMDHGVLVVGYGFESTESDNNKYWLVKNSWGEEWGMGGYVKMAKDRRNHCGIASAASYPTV
# T1 sequence (Q70CQ3 whole entry): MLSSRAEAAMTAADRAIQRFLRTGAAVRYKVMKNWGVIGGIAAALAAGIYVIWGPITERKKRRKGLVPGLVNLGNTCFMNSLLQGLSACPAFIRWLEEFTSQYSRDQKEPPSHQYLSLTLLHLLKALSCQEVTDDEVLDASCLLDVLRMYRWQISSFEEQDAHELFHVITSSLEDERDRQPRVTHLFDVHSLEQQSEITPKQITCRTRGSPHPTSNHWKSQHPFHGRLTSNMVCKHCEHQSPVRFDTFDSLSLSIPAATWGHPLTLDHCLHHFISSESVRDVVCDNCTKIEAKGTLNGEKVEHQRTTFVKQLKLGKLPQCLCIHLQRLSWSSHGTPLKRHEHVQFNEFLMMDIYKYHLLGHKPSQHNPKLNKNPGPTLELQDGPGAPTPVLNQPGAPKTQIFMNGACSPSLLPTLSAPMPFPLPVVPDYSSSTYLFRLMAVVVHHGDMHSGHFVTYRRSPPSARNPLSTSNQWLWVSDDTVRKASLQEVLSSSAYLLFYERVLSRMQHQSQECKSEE
Compound,IC50 [1] [µM],"α-SMA levels in UUO injured kidneys v vehicle treated controls ([2]; 15, 5 and 1.5 mg/kg oral BID)","collagen deposition (picrosirius red staining) in ligated kidneys ([2]; 15, 5 and 1.5 mg/kg p.o. BID)",EC50 [3] [µM]
"COC[C@@H]1C[C@@H](NC(=O)c2ncc(-c3cccc(OC(F)(F)F)c3)o2)CN1C#N [Example 1, N-((3R,5S)-1-Cyano-5-(methoxymethyl)pyrrolidin-3-yl)-5-(3-(trifluoromethoxy)phenyl)oxazole-2-carboxamide]",17.7,statistical reduction in α-SMA levels,statistically reduced collagen deposition,–
"C[C@@H]1C[C@@H](NC(=O)c2ncc(-c3cccc(OC(F)(F)F)c3)o2)CN1C#N [Example 2, N-((3R,5R)-1-Cyano-5-methylpyrrolidin-3-yl)-5-(3-(trifluoromethoxy)phenyl)oxazole-2-carboxamide]",–,–,–,0.007
